The source of these data is article PMC11031590, “Narazaciclib, a novel multi-kinase inhibitor with potent activity against CSF1R, FLT3 and CDK6, shows strong anti-AML activity in defined preclinical models” (Scientific Reports, 2024).

The test system of assay [1] is MV-4-11 subcutaneous xenograft. Briefly: MV-4-11 subcutaneous xenograft model. As to conditions: Azacitidine 3 mg/kg intraperitoneally twice per week for 3 weeks. It counts as in vivo, NOD/scid mice. An excerpt: The subcutaneous cell line xenograft (CDX) models and systemic patient-derived xenograft (PDX) models of AML have been extensively described before. For the subcutaneous MV-4-11 CDX model, 5 × 10^6 MV-4-11 tumor cells harvested from exponential growth phase were mixed with Matrigel (1:1) and then inoculated into the right front flank region of 6- to 7-week-old female NOD/scid mice for tumor development. MV-4-11 tumor-bearing mice were randomized into 5 groups (N = 8) when their tumor volume reached approximately 100 mm^3 and received their designated treatments following randomization. Narazaciclib was administrated intraperitoneally at 100 mg/kg twice per week for 3 weeks, while Azacitidine was administrated intraperitoneally at 3 mg/kg twice per week for 3 weeks. For the subcutaneous Ba/F3-ETV6-CSF1R CDX model, 1 × 10^6 Ba/F3-ETV6-CSF1R tumor cells harvested from exponential growth phase were mixed with Matrigel (1:1) and then inoculated into the right front flank region of 6- to 8-week-old female NOD/scid mice for tumor development. Ba/F3-ETV6-CSF1R tumor-bearing mice were randomized into 5 groups (N = 6) when their tumor volume reached approximately 100 mm^3 and received their designated treatments following randomization. […] Tumor volume and body weight were measured at different time points and tumor growth inhibition (TGI) was used as index to determine the therapeutic efficacy.

For assay [2], the system named is Ba/F3-RBM6-CSF1R cell line. Kind of assay: Ba/F3-RBM6-CSF1R proliferation assay (CTG). It counts as cell-based, mouse. As to conditions: not requiring CSF1. On the procedure:
(§1) The recombinant Ba/F3 cell lines overexpressing human CSF1R, or human RBM6-CSF1R, or human ETV6-CSF1R were generated using a retrovirus vector (Kyinno Co., Ltd. Beijing). The recombinant Ba/F3 lines overexpressing human Kras G12C orEGFR-L718Q mutants, and different mutant variants of FLT3 were also similarly created as well. A standard proliferation assay via CTG readout was performed according to the vendor’s instructions (KYinno Biotechnology Co., Ltd. Beijing).

Another assay has as its system Ba/F3-CSF1R cell line. Briefly: Ba/F3-CSF1R proliferation assay (CTG). The conditions noted are these: + 100 ng/ml CSF-1. It counts as cell-based, mouse. The protocol: as §1
Assay [3] deals with MV-4-11 subcutaneous xenograft. As to conditions: prior knowledge; cited from earlier work.
The next assay relates to AM8096 AML-PDX. Kind of assay: AM8096 systemic AML-PDX model. It counts as in vivo, NOD/scid mice. The conditions noted are these: AM8096, quizartinib. On the procedure:
For systemic AML-PDX models, the model establishment and narazaciclib pharmacology experiment were performed essentially as described previously. Briefly, 2 × 10^6 AM7407 cells, or 2 × 10^6 AM7577 cells, or 2 × 10^6 AM5512 cells, or 1.65 × 10^6 AM8096 cells were inoculated intravenously into 4- to 5-week-old female NOD/scid mice for AML development. Engraftment was confirmed by the presence of circulating human CD45+ cells (anti-human CD45 antibody, Cat. 304038, Biolegend) in peripheral blood. Mice with successful engraftment of AML-PDX were randomized into different treatment groups (N = 6) and received their designated treatments. Narazaciclib was administrated orally or intraperitoneally at 10 mg/kg, or 30 mg/kg, or 100 mg/kg every day throughout the study, while Cytarabine was administrated intraperitoneally at 3 mg/kg every day. Following the initiation of designated treatments, leukemic burden was monitored by flow cytometry with anti-human CD45 antibody on the peripheral blood every week as well as on the peripheral blood, bone marrow cells and splenocytes of mice at sacrifice. Mice were sacrifice once the followings are observed: body weight loss over 20%, reduced motility and activity, labored breathing, ruffled coat, hunched back and severe dehydration.

For `Nc1ncn([C@@H]2O[C@H](CO)[C@@H](O)[C@H]2O)c(=O)n1` [Azacitidine, reference compound], in assay [1], the “anti-AML effect (tumor growth)” value is “little anti-AML effect”. As to `COc1ccc(COc2ccc(Cc3cnc(N)nc3N)cc2OC)cc1` [GW2580, reference compound], the IC50 (commonly the midpoint of a concentration-inhibition curve) is 0.344 µM in assay [2] and 0.0595 µM in the assay with Ba/F3-CSF1R cell line. With `FC(F)(F)c1ccc(CNc2ccc(Cc3c[nH]c4ncc(Cl)cc34)cn2)cn1` [Pexidartinib, pexidartinib, reference compound], the IC50 was 0.147 µM in assay [2] (Mus musculus) and approximately 0.00388 µM in the assay on Ba/F3-CSF1R cell line (Mus musculus). With `CCc1nc(C(N)=O)c(Nc2ccc(N3CCC(N4CCN(C)CC4)CC3)c(OC)c2)nc1NC1CCOCC1` [gilteritinib], the “response of MV-4-11 to FLT3i” value in assay [3] was “responded”. Turning to `CC(C)(C)c1cc(NC(=O)Nc2ccc(-c3cn4c(n3)sc3cc(OCCN5CCOCC5)ccc34)cc2)no1` [quizartinib, reference compound], the response of model result in the assay on AM8096 AML-PDX is “responded poorly”. Further, the “response of MV-4-11 to FLT3i” value in assay [3] was “responded”. As to `CNC(=O)c1cc(Oc2ccc(NC(=O)Nc3ccc(Cl)c(C(F)(F)F)c3)cc2)ccn1` [sorafenib], the “response of MV-4-11 to FLT3i” value in assay [3] was “responded”.
